From US20110038885A1, “CHEMOKINE ANALOGS” (priority 2007, published 2011)
Numbered stars: 1 amine (or outer) side, 2 acyl side, 3 side chain; on linkers, the order of the positions; unused ones are H or OH. Bridge positions count the residues as written; N and C are the ends. Square brackets hold non-standard residues; d marks the D form. Side chains are listed from the residue outwards. Peptide text beside a SMILES is read from it. * marks the point of attachment. γGlu = O=C(O)[C@H](CCC(=O)[*:2])N[*:1]; Diglycolyl = O=C(COCC(=O)[*:2])[*:1]; Glutaryl = O=C(CCCC(=O)[*:2])[*:1]; Suc = O=C(CCC(=O)[*:2])[*:1]; Decanoyl = CCCCCCCCCC(=O)*; Isobutyryl = CC(C)C(=O)*; Orn = NCCC[C@H](N)C(=O)O; Dab = NCC[C@H](N)C(=O)O; Dap = NC[C@H](N)C(=O)O; Butyryl = CCCC(=O)*; Bz = O=C(c1ccccc1)*; Ava = NCCCCC(=O)O; GABA = NCCCC(=O)O; βAla = NCCC(=O)O

System: MCP-1
Assay: In vitro chemotaxis (trans-well migration) v MCP-1
Assay type: cell-based, human
Method in brief: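 Trans-well migration toward IL-8 or MCP-1 placed below, with agent added to THP-1 cells (10^4-10^6) in the top well and incubation at 37° C (e.g. 4 hours). MTT absorbance at 595 nm, interpolated on a cell standard curve, gives migrated cell numbers; TGFβ-type negative control and cytotoxicity check included.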

EC50 [nM]	Compound
10	CC[C@H](C)[C@@H]1NC(=O)[C@H](Cc2c[nH]c3ccccc23)NC(=O)[C@H](CCCCN)NC(=O)[C@@H](NC(C)=O)CCNC(=O)CC[C@@H](C(N)=O)NC(=O)[C@H](CCC(N)=O)NC1=O [Example 122, Ac-c(Dab-Lys-Trp-Ile-Gln-Glu)-NH2] (Ac-[Dab]KWIQE-NH2; lactam 1-6)
7	CC[C@H](C)[C@@H]1NC(=O)[C@H](Cc2c[nH]c3ccccc23)NC(=O)[C@H](CCCCN)NC(=O)[C@@H](NC(C)=O)CCCNC(=O)CC[C@@H](C(N)=O)NC(=O)[C@H](CCC(N)=O)NC1=O [Example 123, Ac-c(Orn-Lys-Trp-Ile-Gln-Glu)-NH2] (Ac-[Orn]KWIQE-NH2; lactam 1-6)
8	CC[C@H](C)[C@@H]1NC(=O)[C@H](Cc2c[nH]c3ccccc23)NC(=O)[C@H](CCCCN)NC(=O)[C@@H](NC(C)=O)CCCCNC(=O)CC[C@@H](C(N)=O)NC(=O)[C@H](CCC(N)=O)NC1=O [Example 124, Ac-c(Lys-Lys-Trp-Ile-Gln-Glu)-NH2] (Ac-KKWIQE-NH2; lactam 1-6)
15	CC[C@H](C)[C@@H]1NC(=O)[C@H](Cc2c[nH]c3ccccc23)NC(=O)[C@H](CCCCN)NC(=O)CCC(=O)NC[C@@H](C(N)=O)NC(=O)[C@H](CCC(N)=O)NC1=O [Example 125, c(Succinyl-Lys-Trp-Ile-Gln-Dap)-NH2] (KWIQ[Dap]-NH2; linker N-5 via Suc)
7	CC[C@H](C)[C@@H]1NC(=O)[C@H](Cc2c[nH]c3ccccc23)NC(=O)[C@H](CCCCN)NC(=O)CCCC(=O)NC[C@@H](C(N)=O)NC(=O)[C@H](CCC(N)=O)NC1=O [Example 127, c(Glutaryl-Lys-Trp-Ile-Gln-Dap)-NH2NH2] (KWIQ[Dap]-NH2; linker N-5 via Glutaryl)
10	CC[C@H](C)[C@@H]1NC(=O)[C@H](Cc2c[nH]c3ccccc23)NC(=O)[C@H](CCCCN)NC(=O)CCCC(=O)NCC[C@@H](C(N)=O)NC(=O)[C@H](CCC(N)=O)NC1=O [Example 128, c(Glutaryl-Lys-Trp-Ile-Gln-Dab)-NH2] (KWIQ[Dab]-NH2; linker N-5 via Glutaryl)
400	CC[C@H](C)[C@@H]1NC(=O)[C@H](Cc2c[nH]c3ccccc23)NC(=O)[C@H](CCCCN)NC(=O)CCCC(=O)NCCCC[C@@H](C(N)=O)NC(=O)[C@H](CCC(N)=O)NC1=O [Example 129, c(Glutaryl-Lys-Trp-Ile-Gln-Lys)-NH2] (KWIQK-NH2; linker N-5 via Glutaryl)
> 1000	CCCCCCCCCC(=O)N[C@@H](CCC(=O)NCCCC[C@H](N)C(=O)N[C@H]1CSSC[C@@H](C(N)=O)NC(=O)[C@H](CCC(N)=O)NC(=O)[C@H]([C@@H](C)CC)NC(=O)[C@H](Cc2c[nH]c3ccccc23)NC(=O)[C@H](CCCCN)NC(=O)[C@H](CCC(N)=O)NC(=O)[C@H](CCCCN)NC(=O)[C@@H]2CCCN2C(=O)[C@H](CC(=O)O)NC(=O)[C@H](CC(C)C)NC1=O)C(=O)O [Example 173, Lys{Nε-[γ-Glu-(Nα-decanoyl)]}-c(Cys-Leu-Asp-Pro-Lys-Gln-Lys-Trp-Ile-Gln-Cys)-NH2] (H-K([γGlu-Decanoyl])CLDPKQKWIQC-NH2; disulfide 2-12)
20	CC(C)[C@H](NC(=O)[C@@H](N)Cc1c[nH]c2ccccc12)C(=O)NC1CCC(=O)NC1=O (stereo partly drawn) [Example 181, Trp-Val-α-aminoglutaramide]
45	CC[C@@H](C)[C@H]1NC(=O)[C@@H](CCC(N)=O)NC(=O)CCNC(=O)C[C@H](C(N)=O)NC(=O)[C@@H](CCCCN)NC(=O)[C@@H](Cc2c[nH]c3ccccc23)NC1=O [Example 195, c((βAla-D-Gln-D-Ile-D-Trp-D-Lys-D-Asp)-NH2] ([βAla][dQ][dI][dW][dK][dD]-NH2; lactam N-6)
50	CC[C@@H](C)[C@H]1NC(=O)[C@@H](CCC(N)=O)NC(=O)CCCNC(=O)C[C@H](C(N)=O)NC(=O)[C@@H](CCCCN)NC(=O)[C@@H](Cc2c[nH]c3ccccc23)NC1=O [Example 196, c(Gaba-D-Gln-D-Ile-D-Trp-D-Lys-D-Asp)-NH2] ([GABA][dQ][dI][dW][dK][dD]-NH2; lactam N-6)
20	CC[C@@H](C)[C@H]1NC(=O)[C@@H](CCC(N)=O)NC(=O)CCNC(=O)C[C@H](C(N)=O)NC(=O)[C@@H](CC(C)C)NC(=O)[C@@H](CC(=O)O)NC(=O)[C@H]2CCCN2C(=O)[C@@H](CCCCN)NC(=O)[C@@H](CCC(N)=O)NC(=O)[C@@H](CCCCN)NC(=O)[C@@H](Cc2c[nH]c3ccccc23)NC1=O [Example 199, c(βAla-D-Gln-D-Ile-D-Trp-D-Lys-D-Gln-D-Lys-D-Pro-D-Asp-D-Leu-D-Asp)-NH2] ([βAla][dQ][dI][dW][dK][dQ][dK][dP][dD][dL][dD]-NH2; lactam N-11)
30	CCCC(=O)N[C@@H]1CSSC[C@H](C(N)=O)NC(=O)[C@@H](CCCCN)NC(=O)[C@@H](Cc2c[nH]c3ccccc23)NC(=O)[C@@H](C(C)C)NC(=O)[C@@H](CCC(N)=O)NC1=O [Example 200, Butanyl-c(D-Cys-D-Gln-D-Val-D-Trp-D-Lys-D-Cys)-NH2] (Butyryl-[dC][dQ][dV][dW][dK][dC]-NH2; disulfide 1-6)
10	CC[C@H](C)[C@H](NC(=O)[C@H](Cc1c[nH]c2ccccc12)NC(=O)[C@H](CCCCN)NC(=O)[C@H](CC(=O)O)NC(=O)C(C)C)C(=O)N[C@@H](CCC(N)=O)C(=O)N[C@@H](CCCCN)C(N)=O [Example 201, Isobutyryl-Asp-Lys-Trp-Ile-Gln-Lys-NH2] (Isobutyryl-DKWIQK-NH2)

Continued, compound first:

Compound	EC50 [nM]
CC[C@H](C)[C@@H]1NC(=O)[C@H](Cc2c[nH]c3ccccc23)NC(=O)[C@H](CCCCN)NC(=O)CCC(=O)NCC[C@@H](C(N)=O)NC(=O)[C@H](CCC(N)=O)NC1=O [Example 126, c(Succinyl-Lys-Trp-Ile-Gln-Dab)-NH2] (KWIQ[Dab]-NH2; linker N-5 via Suc)	6
CC[C@H](C)[C@@H]1NC(=O)[C@H](Cc2c[nH]c3ccccc23)NC(=O)[C@H](CCCCN)NC(=O)COCC(=O)NC[C@@H](C(N)=O)NC(=O)[C@H](CCC(N)=O)NC1=O [Example 130, c(Diglycolyl-Lys-Trp-Ile-Gln-Dap)-NH2] (KWIQ[Dap]-NH2; linker N-5 via Diglycolyl)	50
CC[C@H](C)[C@@H]1NC(=O)[C@H](Cc2c[nH]c3ccccc23)NC(=O)[C@H](CCCCN)NC(=O)COCC(=O)NCC[C@@H](C(N)=O)NC(=O)[C@H](CCC(N)=O)NC1=O [Example 131, c(Diglycolyl-Lys-Trp-Ile-Gln-Dab)-NH2] (KWIQ[Dab]-NH2; linker N-5 via Diglycolyl)	30
CC[C@H](C)[C@@H]1NC(=O)[C@H](Cc2c[nH]c3ccccc23)NC(=O)[C@H](CCCCN)NC(=O)COCC(=O)NCCC[C@@H](C(N)=O)NC(=O)[C@H](CCC(N)=O)NC1=O [Example 132, c(Diglycolyl-Lys-Trp-Ile-Gln-Orn)-NH2] (KWIQ[Orn]-NH2; linker N-5 via Diglycolyl)	200
CC(C)(C)OC(=O)N1Cc2ccccc2C[C@H]1C(=O)NCCC(=O)NC1CCC(=O)NC1=O (stereo partly drawn) [Example 174, BOC-Tic-βAla-α-aminoglutaramide]	200
N[C@@H](Cc1c[nH]c2ccccc12)C(=O)NCC(=O)NC1CCC(=O)NC1=O (stereo partly drawn) [Example 180, Trp-Gly-α-aminoglutaramide]	25
CC[C@@H](C)[C@H]1NC(=O)[C@@H](CCC(N)=O)NC(=O)[C@H](NC(C)=O)CSSC[C@H](C(N)=O)NC(=O)[C@@H](CCCCN)NC(=O)[C@@H](Cc2c[nH]c3ccccc23)NC1=O [Example 190, Ac-c(D-Cys-D-Gln-D-Ile-D-Trp-D-Lys-D-Cys)-NH2] (Ac-[dC][dQ][dI][dW][dK][dC]-NH2; disulfide 1-6)	30
CC[C@@H](C)[C@H]1NC(=O)[C@@H](CCC(N)=O)NC(=O)[C@H](NC(=O)c2ccccc2)CSSC[C@H](C(N)=O)NC(=O)[C@@H](CCCCN)NC(=O)[C@@H](Cc2c[nH]c3ccccc23)NC1=O [Example 192, Benzoyl-c(D-Cys-D-Gln-D-Ile-D-Trp-D-Lys-D-Cys)-NH2] (Bz-[dC][dQ][dI][dW][dK][dC]-NH2; disulfide 1-6)	7
CC[C@@H](C)[C@H]1NC(=O)[C@@H](CCC(N)=O)NC(=O)[C@H](NC(=O)C(C)C)CSSC[C@H](C(N)=O)NC(=O)[C@@H](CCCCN)NC(=O)[C@@H](Cc2c[nH]c3ccccc23)NC1=O [Example 193, Isobutyryl-c(D-Cys-D-Gln-D-Ile-D-Trp-D-Lys-D-Cys)-NH2] (Isobutyryl-[dC][dQ][dI][dW][dK][dC]-NH2; disulfide 1-6)	25
CC[C@@H](C)[C@H]1NC(=O)[C@@H](CCC(N)=O)NC(=O)CCCCNC(=O)C[C@H](C(N)=O)NC(=O)[C@@H](CCCCN)NC(=O)[C@@H](Cc2c[nH]c3ccccc23)NC1=O [Example 197, c(Apn-D-Gln-D-Ile-D-Trp-D-Lys-D-Asp)-NH2] ([Ava][dQ][dI][dW][dK][dD]-NH2; lactam N-6)	20
CC[C@@H](C)[C@H]1NC(=O)[C@@H](CCC(N)=O)NC(=O)[C@H](NC(C)=O)CSSC[C@H](C(N)=O)NC(=O)[C@@H](CC(C)C)NC(=O)[C@@H](CC(=O)O)NC(=O)[C@H]2CCCN2C(=O)[C@@H](CCCCN)NC(=O)[C@@H](CCC(N)=O)NC(=O)[C@@H](CCCCN)NC(=O)[C@@H](Cc2c[nH]c3ccccc23)NC1=O [Example 198, Ac-c(D-Cys-D-Gln-D-Ile-D-Trp-D-Lys-D-Gln-D-Lys-D-Pro-D-Asp-D-Leu-D-Cys)-NH2] (Ac-[dC][dQ][dI][dW][dK][dQ][dK][dP][dD][dL][dC]-NH2; disulfide 1-11)	20
CC[C@H](C)[C@H](NC(=O)[C@H](Cc1c[nH]c2ccccc12)NC(=O)[C@H](CCCCN)NC(=O)[C@H](CCCN)NC(=O)C(C)C)C(=O)N[C@@H](CCC(N)=O)C(=O)N[C@@H](CC(=O)O)C(N)=O [Example 202, Isobutyryl-Orn-Lys-Trp-Ile-Gln-Asp-NH2] (Isobutyryl-[Orn]KWIQD-NH2)	8
[aminoPeg10-oxaglutaryl]2-c(D-Cys-D-Gln-D-Ile-D-Trp-D-Lys-D-Gln-D-Lys-D-Pro-D-Asp-D-Leu-D-Cys)-NH2 [Example 186]	20
[aminoPeg10-oxaglutaryl]-c(D-Cys-D-Gln-D-Ile-D-Trp-D-Lys-D-Gln-D-Lys-D-Pro-D-Asp-D-Leu-D-Cys)-NH2 [Example 187]	66
